Values of other authors as cited in article PMC3845493 (Molecular pharmaceutics, 2013).

Sequence: PARVGLGITTVLTMTTQSSGSRA [Peptide M2GlyR]
- Aggregation in aqueous solutions: tendency to aggregate in aqueous solutions
